Data taken from the kinase profiling compilation of Christmann-Franck et al. (2016).

What was measured:
Assay in all cases: radiometric filter-binding kinase assay
[1] = test system: SGK1 (human), O00141 [S422D]
[2] = target: PAK7 (human) (UniProt Q9P286)
[3] = target: IGF1R (human) (UniProt P08069)
[4] = target: PAK6 (human) (UniProt Q9NQU5)
[5] = target: MAP3K7 TAB1 (human) (UniProt Q15750+O43318)
[6] = target: NEK2 (human) (UniProt P51955)
[7] = target: PIM3 (human) (UniProt Q86V86)
[8] = target: MAPK15 (human) (UniProt Q8TD08)
[9] = target: PKN2 (human) (UniProt Q16513)
[10] = target: PAK4 (human) (UniProt O96013)
[11] = target: NEK6 (human) (UniProt Q9HC98)
[12] = target: EPHA4 (human) (UniProt P54764)
[13] = target: PIM2 (human) (UniProt Q9P1W9)
[14] = target: MARK2 (human) (UniProt Q7KZI7)
[15] = target: RIPK2 (human) (UniProt O43353)
[16] = test system: PAK2 (human), Q13177 [T402E]
[17] = target: HIPK3 (human) (UniProt Q9H422)
[18] = target: MST4 (human) (UniProt Q9P289)
[19] = target: CHEK1 (human) (UniProt O14757)
[20] = target: IKBKE (human) (UniProt Q14164)
[21] = test system: AKT2 (human), P31751 [S474D]
[22] = target: CLK2 (human) (UniProt P49760)
[23] = target: SRPK1 (human) (UniProt Q96SB4)
[24] = target: DYRK1A (human) (UniProt Q13627)
[25] = target: IRAK4 (human) (UniProt Q9NWZ3)
[26] = target: RPS6KA3 KD1 KD2 (human) (UniProt P51812)
[27] = target: RPS6KA5 KD1 KD2 (human) (UniProt O75582)
[28] = target: MAPKAPK2 (human) (UniProt P49137)
[29] = target: MAPK14 (human) (UniProt Q16539)
[30] = target: MARK1 (human) (UniProt Q9P0L2)
[31] = target: MAPK12 (human) (UniProt P53778)
[32] = target: PLK1 (human) (UniProt P53350)
[33] = target: MAPK3 (human) (UniProt P27361)
[34] = target: CSNK1D (human) (UniProt P48730)
[35] = target: CAMKK2 (human) (UniProt Q96RR4)

Sequence of PAK7 (human) (Q9P286 whole entry, looked up): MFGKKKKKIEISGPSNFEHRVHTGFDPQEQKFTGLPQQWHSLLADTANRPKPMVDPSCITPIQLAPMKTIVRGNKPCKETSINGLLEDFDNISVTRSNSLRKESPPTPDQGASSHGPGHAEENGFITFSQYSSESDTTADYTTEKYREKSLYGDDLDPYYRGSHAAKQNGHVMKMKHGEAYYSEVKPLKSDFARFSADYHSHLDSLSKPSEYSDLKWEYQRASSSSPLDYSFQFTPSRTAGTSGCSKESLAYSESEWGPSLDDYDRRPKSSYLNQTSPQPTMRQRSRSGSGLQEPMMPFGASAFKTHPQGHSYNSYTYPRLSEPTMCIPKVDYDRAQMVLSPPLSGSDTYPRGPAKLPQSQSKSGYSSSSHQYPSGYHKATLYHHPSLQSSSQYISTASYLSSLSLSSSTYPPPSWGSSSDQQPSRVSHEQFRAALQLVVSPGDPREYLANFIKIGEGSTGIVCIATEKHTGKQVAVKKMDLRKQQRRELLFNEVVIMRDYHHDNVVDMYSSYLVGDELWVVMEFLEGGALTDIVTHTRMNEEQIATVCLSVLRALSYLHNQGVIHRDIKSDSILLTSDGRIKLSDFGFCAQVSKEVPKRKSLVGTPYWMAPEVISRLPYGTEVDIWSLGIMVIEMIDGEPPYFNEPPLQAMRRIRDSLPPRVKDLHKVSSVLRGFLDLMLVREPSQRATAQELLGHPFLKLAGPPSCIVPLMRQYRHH
Sequence of MAPK14 (human) (Q16539 whole entry, looked up): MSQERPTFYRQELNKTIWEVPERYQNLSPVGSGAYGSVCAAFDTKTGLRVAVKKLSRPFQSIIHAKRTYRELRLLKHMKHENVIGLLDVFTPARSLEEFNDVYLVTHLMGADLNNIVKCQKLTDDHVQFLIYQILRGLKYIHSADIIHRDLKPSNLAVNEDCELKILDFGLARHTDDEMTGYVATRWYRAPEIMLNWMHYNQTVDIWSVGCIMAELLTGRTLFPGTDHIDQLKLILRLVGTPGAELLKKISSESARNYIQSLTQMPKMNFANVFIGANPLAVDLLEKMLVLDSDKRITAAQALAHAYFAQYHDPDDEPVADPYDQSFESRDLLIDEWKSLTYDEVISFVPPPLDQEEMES
Sequence of NEK6 (human) (Q9HC98 whole entry, looked up): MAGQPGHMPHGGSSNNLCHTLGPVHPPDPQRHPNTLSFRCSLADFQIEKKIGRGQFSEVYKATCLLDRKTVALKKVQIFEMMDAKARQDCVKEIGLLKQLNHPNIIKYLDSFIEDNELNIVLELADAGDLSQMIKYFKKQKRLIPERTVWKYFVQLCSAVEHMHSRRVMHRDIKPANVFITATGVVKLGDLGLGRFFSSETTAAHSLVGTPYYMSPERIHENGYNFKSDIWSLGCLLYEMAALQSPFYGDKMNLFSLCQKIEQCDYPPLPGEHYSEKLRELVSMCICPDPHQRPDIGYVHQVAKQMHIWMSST
Sequence of CLK2 (human) (P49760 whole entry, looked up): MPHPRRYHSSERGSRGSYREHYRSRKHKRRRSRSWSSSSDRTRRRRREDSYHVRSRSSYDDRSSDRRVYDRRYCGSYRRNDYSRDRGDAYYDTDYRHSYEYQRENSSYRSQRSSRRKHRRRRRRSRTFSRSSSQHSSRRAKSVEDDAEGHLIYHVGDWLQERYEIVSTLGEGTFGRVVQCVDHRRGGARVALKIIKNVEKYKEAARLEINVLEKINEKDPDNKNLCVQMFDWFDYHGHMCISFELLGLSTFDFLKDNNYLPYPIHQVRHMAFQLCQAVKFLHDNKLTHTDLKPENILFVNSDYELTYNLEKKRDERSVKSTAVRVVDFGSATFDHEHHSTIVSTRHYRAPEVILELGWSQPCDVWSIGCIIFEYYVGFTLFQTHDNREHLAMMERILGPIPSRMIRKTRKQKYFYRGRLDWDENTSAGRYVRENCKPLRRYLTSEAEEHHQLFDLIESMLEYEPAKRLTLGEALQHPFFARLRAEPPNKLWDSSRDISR
Sequence of PAK4 (human) (O96013 whole entry, looked up): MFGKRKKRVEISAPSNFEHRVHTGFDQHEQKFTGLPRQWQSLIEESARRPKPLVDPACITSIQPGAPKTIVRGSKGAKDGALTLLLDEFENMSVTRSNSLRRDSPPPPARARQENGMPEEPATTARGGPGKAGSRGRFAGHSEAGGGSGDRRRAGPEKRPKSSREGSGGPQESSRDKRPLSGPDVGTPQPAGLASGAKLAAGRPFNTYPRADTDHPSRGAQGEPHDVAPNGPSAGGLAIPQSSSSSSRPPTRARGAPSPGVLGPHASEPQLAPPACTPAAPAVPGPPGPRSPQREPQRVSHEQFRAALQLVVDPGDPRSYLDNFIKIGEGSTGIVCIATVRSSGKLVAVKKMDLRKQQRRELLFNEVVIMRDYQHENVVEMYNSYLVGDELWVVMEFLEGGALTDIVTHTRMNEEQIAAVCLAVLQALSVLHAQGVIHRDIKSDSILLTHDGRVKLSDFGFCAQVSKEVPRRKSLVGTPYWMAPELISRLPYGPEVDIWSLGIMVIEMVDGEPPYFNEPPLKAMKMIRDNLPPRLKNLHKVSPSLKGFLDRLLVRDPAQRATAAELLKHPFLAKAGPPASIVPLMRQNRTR
Sequence of PKN2 (human) (Q16513 whole entry, looked up): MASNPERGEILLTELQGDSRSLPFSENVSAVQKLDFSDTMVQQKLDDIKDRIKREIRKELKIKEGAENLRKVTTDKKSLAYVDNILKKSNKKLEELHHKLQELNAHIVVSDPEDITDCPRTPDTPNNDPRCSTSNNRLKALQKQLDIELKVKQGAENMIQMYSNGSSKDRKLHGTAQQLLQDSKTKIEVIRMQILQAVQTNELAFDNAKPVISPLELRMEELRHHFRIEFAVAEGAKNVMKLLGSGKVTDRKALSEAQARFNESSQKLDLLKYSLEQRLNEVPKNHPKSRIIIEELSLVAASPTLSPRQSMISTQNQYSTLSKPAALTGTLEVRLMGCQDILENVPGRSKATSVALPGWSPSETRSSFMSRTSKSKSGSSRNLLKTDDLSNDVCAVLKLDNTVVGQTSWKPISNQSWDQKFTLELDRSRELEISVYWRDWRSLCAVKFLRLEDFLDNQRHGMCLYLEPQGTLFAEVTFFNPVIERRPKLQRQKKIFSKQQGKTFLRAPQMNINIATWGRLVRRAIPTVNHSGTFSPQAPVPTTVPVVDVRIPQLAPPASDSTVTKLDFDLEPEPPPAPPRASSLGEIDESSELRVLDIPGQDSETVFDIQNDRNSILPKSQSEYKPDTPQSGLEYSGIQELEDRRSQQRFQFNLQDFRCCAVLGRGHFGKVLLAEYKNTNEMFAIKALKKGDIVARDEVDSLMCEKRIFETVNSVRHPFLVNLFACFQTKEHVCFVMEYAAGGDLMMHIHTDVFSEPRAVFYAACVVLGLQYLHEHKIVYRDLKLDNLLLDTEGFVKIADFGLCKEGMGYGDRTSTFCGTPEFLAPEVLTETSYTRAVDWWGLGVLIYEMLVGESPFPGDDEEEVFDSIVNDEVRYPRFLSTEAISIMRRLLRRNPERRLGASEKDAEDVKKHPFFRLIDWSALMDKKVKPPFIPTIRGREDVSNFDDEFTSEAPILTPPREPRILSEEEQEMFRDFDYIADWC
Sequence of IGF1R (human) (P08069 whole entry, looked up): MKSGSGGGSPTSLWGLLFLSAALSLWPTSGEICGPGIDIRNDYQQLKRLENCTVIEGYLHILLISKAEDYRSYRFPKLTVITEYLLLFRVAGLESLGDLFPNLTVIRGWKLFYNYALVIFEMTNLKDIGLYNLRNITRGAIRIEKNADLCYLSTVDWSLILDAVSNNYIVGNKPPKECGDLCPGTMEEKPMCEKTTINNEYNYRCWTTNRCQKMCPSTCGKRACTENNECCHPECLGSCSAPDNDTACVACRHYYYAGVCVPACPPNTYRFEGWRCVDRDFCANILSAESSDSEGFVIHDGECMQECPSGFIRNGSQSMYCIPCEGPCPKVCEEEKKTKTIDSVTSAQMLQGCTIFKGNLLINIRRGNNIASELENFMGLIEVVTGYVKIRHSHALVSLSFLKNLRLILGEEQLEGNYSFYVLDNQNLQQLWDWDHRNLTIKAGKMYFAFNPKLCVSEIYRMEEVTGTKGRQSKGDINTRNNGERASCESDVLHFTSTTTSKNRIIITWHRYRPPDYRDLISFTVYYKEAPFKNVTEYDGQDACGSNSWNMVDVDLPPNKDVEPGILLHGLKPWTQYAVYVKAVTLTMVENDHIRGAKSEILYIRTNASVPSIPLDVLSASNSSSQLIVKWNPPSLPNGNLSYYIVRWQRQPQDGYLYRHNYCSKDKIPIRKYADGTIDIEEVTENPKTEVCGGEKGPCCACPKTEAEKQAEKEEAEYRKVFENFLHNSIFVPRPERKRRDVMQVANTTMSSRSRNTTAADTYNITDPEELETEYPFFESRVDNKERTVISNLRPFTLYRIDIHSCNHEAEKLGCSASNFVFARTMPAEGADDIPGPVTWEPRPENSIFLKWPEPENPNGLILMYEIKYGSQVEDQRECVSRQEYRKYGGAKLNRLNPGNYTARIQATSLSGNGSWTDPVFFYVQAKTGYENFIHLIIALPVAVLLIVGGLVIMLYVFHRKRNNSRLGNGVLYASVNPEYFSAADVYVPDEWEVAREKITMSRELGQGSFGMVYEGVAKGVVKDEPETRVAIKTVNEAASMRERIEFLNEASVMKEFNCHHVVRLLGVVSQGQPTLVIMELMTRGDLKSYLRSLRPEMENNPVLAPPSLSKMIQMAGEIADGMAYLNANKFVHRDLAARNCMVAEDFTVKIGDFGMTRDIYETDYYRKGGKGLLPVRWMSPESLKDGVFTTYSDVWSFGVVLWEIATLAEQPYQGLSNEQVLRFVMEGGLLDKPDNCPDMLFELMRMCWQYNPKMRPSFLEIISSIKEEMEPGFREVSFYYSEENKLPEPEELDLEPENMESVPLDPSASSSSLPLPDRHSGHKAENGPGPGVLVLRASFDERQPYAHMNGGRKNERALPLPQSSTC

For `NC(=O)c1cc2c(-c3cccc(-c4ccccc4)c3)cnc(N)c2s1`, the residual activity ([1]; compound 0.1 µM) was 92%, the residual activity ([1]; compound 1.0 µM) was 58% and the residual activity ([1]; compound 10.0 µM) was 46%. It also gave a residual activity ([2]; compound 0.1 µM) of 79%, a residual activity ([2]; compound 1.0 µM) of 37% and a residual activity ([2]; compound 10.0 µM) of 16%. The residual activity ([3]; compound 0.1 µM) was 113%, the residual activity ([3]; compound 1.0 µM) was 87% and the residual activity ([3]; compound 10.0 µM) was 13%. The residual activity ([4]; compound 0.1 µM) was 85%, the residual activity ([4]; compound 1.0 µM) was 70% and the residual activity ([4]; compound 10.0 µM) was 31%. For the same molecule, the residual activity ([5]; compound 1.0 µM) was 8%, the residual activity ([5]; compound 10.0 µM) was 2% and the residual activity ([6]; compound 0.1 µM) was 88%. The residual activity ([6]; compound 1.0 µM) was 74%, the residual activity ([6]; compound 10.0 µM) was 44% and the residual activity ([7]; compound 0.1 µM) was 101%. It also gave a residual activity ([7]; compound 1.0 µM) of 88%, a residual activity ([7]; compound 10.0 µM) of 42% and a residual activity ([8]; compound 0.1 µM) of 99%. It also gave a residual activity ([8]; compound 1.0 µM) of 50%, a residual activity ([8]; compound 10.0 µM) of 23% and a residual activity ([9]; compound 0.1 µM) of 100%. For the same molecule, the residual activity ([9]; compound 1.0 µM) was 76%, the residual activity ([9]; compound 10.0 µM) was 29% and the residual activity ([10]; compound 0.1 µM) was 65%. For the same molecule, the residual activity ([10]; compound 1.0 µM) was 18%, the residual activity ([10]; compound 10.0 µM) was 7% and the residual activity ([11]; compound 0.1 µM) was 108%. For the same molecule, the residual activity ([11]; compound 1.0 µM) was 98%, the residual activity ([11]; compound 10.0 µM) was 135% and the residual activity ([12]; compound 0.1 µM) was 93%. It also gave a residual activity ([12]; compound 1.0 µM) of 89%, a residual activity ([12]; compound 10.0 µM) of 71% and a residual activity ([13]; compound 0.1 µM) of 98%. It also gave a residual activity ([13]; compound 1.0 µM) of 95%, a residual activity ([13]; compound 10.0 µM) of 81% and a residual activity ([14]; compound 0.1 µM) of 103%. It also gave a residual activity ([14]; compound 1.0 µM) of 65%, a residual activity ([14]; compound 10.0 µM) of 28% and a residual activity ([15]; compound 0.1 µM) of 86%. The residual activity ([15]; compound 1.0 µM) was 36%, the residual activity ([15]; compound 10.0 µM) was 12% and the residual activity ([16]; compound 0.1 µM) was 100%. It also gave a residual activity ([16]; compound 1.0 µM) of 93%, a residual activity ([16]; compound 10.0 µM) of 84% and a residual activity ([17]; compound 0.1 µM) of 76%. The residual activity ([17]; compound 1.0 µM) was 52%, the residual activity ([17]; compound 10.0 µM) was 19% and the residual activity ([18]; compound 0.1 µM) was 102%. It also gave a residual activity ([18]; compound 1.0 µM) of 75%, a residual activity ([18]; compound 10.0 µM) of 35% and a residual activity ([19]; compound 0.1 µM) of 100%. For the same molecule, the residual activity ([19]; compound 1.0 µM) was 64%, the residual activity ([19]; compound 10.0 µM) was 29% and the residual activity ([20]; compound 0.1 µM) was 109%. For the same molecule, the residual activity ([20]; compound 1.0 µM) was 86%, the residual activity ([20]; compound 10.0 µM) was 31% and the residual activity ([21]; compound 0.1 µM) was 94%. It also gave a residual activity ([21]; compound 1.0 µM) of 88%, a residual activity ([21]; compound 10.0 µM) of 98% and a residual activity ([22]; compound 0.1 µM) of 50%. For the same molecule, the residual activity ([22]; compound 1.0 µM) was 10%, the residual activity ([22]; compound 10.0 µM) was 2% and the residual activity ([23]; compound 0.1 µM) was 87%. The residual activity ([23]; compound 1.0 µM) was 67%, the residual activity ([23]; compound 10.0 µM) was 17% and the residual activity ([24]; compound 0.1 µM) was 72%. The residual activity ([24]; compound 1.0 µM) was 21%, the residual activity ([24]; compound 10.0 µM) was 5% and the residual activity ([25]; compound 0.1 µM) was 127%. The residual activity ([25]; compound 1.0 µM) was 92%, the residual activity ([25]; compound 10.0 µM) was 44% and the residual activity ([26]; compound 0.1 µM) was 108%. It also gave a residual activity ([26]; compound 1.0 µM) of 84%, a residual activity ([26]; compound 10.0 µM) of 53% and a residual activity ([27]; compound 1.0 µM) of 97%. It also gave a residual activity ([27]; compound 10.0 µM) of 70%, a residual activity ([28]; compound 0.1 µM) of 102% and a residual activity ([28]; compound 1.0 µM) of 101%. The residual activity ([28]; compound 10.0 µM) was 94%, the residual activity ([29]; compound 0.1 µM) was 110% and the residual activity ([29]; compound 1.0 µM) was 101%. For the same molecule, the residual activity ([29]; compound 10.0 µM) was 59%, the residual activity ([30]; compound 0.1 µM) was 78% and the residual activity ([30]; compound 1.0 µM) was 66%. It also gave a residual activity ([30]; compound 10.0 µM) of 37%, a residual activity ([31]; compound 0.1 µM) of 93% and a residual activity ([31]; compound 1.0 µM) of 76%. It also gave a residual activity ([31]; compound 10.0 µM) of 38%, a residual activity ([32]; compound 0.1 µM) of 108% and a residual activity ([32]; compound 1.0 µM) of 98%. The residual activity ([32]; compound 10.0 µM) was 97%, the residual activity ([33]; compound 1.0 µM) was 58% and the residual activity ([33]; compound 10.0 µM) was 16%. For the same molecule, the residual activity ([34]; compound 0.1 µM) was 109%, the residual activity ([34]; compound 1.0 µM) was 73% and the residual activity ([34]; compound 10.0 µM) was 18%. For the same molecule, the residual activity ([35]; compound 0.1 µM) was 99%, the residual activity ([35]; compound 1.0 µM) was 61% and the residual activity ([35]; compound 10.0 µM) was 30%.
